Experiments:
5-lipoxygenase = molecular target: T1, 5-lipoxygenase (Homo sapiens, UniProt P09917); assay: 5-lipoxygenase enzyme assay, % inhibition (5-LO); assay type: biochemical; conditions: for inhibition at 1 µg/mL: Dosage 1.0 μg/ml
T1 sequence (P09917 1-674): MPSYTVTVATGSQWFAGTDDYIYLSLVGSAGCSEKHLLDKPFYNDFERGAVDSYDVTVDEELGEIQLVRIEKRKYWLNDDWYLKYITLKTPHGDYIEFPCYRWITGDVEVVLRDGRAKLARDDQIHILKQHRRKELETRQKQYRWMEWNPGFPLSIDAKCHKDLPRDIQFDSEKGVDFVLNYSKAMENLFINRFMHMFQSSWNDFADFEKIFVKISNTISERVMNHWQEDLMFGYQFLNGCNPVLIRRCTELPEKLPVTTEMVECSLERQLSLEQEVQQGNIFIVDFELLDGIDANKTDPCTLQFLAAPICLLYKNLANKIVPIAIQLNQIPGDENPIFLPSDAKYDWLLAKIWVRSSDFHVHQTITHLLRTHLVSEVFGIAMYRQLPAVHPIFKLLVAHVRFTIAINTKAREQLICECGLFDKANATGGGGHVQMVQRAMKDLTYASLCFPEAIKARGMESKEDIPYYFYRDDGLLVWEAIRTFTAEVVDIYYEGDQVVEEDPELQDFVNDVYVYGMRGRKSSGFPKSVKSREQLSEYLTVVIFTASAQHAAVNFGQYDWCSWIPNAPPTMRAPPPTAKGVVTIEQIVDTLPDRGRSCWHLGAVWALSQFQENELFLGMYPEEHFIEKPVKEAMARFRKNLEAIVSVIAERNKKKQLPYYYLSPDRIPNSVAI

cyclooxygenase = cyclooxygenase (Homo sapiens, UniProt P23219); assay: cyclooxygenase enzyme assay, % inhibition (CO); assay type: biochemical; conditions: for inhibition at 0.5 µg/mL: Dosage 0.5 μg/ml; for inhibition at 1 µg/mL: Dosage 1.0 μg/ml; for inhibition at 5 µg/mL: Dosage 5.0 μg/ml; for inhibition at 0.1 µg/mL: Dosage 0.1 μg/ml
[1] = solubility remark (footnote of table 9); assay type: physicochemical; conditions: footnote to 5-LO value at 100 μg/ml
gastric cytoprotection = conditions: S. Szabo et al., Experimentia, 38, 254, 1982; cited from earlier work
gastric acid secretion = conditions: S. Szabo et al., Experimentia, 38, 254, 1982; cited from earlier work

Chain of cyclooxygenase (P23219 24-599): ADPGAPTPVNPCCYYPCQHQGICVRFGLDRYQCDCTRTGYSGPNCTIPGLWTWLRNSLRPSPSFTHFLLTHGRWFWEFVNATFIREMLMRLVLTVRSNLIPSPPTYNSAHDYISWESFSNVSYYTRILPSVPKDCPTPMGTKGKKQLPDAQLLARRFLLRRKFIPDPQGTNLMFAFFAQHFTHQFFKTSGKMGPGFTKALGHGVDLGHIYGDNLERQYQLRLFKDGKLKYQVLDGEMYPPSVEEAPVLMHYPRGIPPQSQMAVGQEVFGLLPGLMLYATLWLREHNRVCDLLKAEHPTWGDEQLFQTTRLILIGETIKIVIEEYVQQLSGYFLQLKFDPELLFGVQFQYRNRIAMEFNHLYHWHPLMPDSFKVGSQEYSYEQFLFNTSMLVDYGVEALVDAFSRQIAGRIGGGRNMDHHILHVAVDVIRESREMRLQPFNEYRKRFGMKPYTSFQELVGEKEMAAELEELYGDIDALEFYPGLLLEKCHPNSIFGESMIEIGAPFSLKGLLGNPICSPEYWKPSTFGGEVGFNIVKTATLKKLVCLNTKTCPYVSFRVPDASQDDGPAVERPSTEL

COC(=O)c1cc2oc(C(=O)NC=C(c3ccccc3)c3ccccc3)c(O)c2s1 [O phenyl phenyl CO2 CH3, N-(2,2-Diphenylethenyl)-5-carbomethoxy-3-hydroxythieno[3,2-b]furan-2-carboxamide]
inhibition at 0.5 µg/mL (5-lipoxygenase; Dosage 0.5 μg/ml): 30% | inhibition at 5 µg/mL (5-lipoxygenase; Dosage 5.0 μg/ml): 34% | inhibition at 0.5 µg/mL (cyclooxygenase): 95% | inhibition at 1 µg/mL (cyclooxygenase): 98% | inhibition at 2 µg/mL (cyclooxygenase; Dosage 2.0 μg/ml): 98% | inhibition at 5 µg/mL (cyclooxygenase): 100%

Cc1ccc(C(=CNC(=O)c2sc3ccsc3c2O)c2ccco2)cc1 [S p-tolyl 2-furyl H, N-[2-(2-Furyl)-2-(4-methylphenyl)ethenyl]-3-hydroxythieno[3,2-b]thiophene-2-carboxamide]
inhibition at 0.1 µg/mL (5-lipoxygenase; Dosage 0.1 μg/ml): 11% | inhibition at 1 µg/mL (5-lipoxygenase): 14% | inhibition at 10 µg/mL (5-lipoxygenase; Dosage 10.0 μg/ml): 66% | inhibition at 0.1 µg/mL (cyclooxygenase): 49% | inhibition at 1 µg/mL (cyclooxygenase): 97% | inhibition at 5 µg/mL (cyclooxygenase): 98% | inhibition at 10 µg/mL (cyclooxygenase; Dosage 10.0 μg/ml): 100%

COC(=O)c1cc2sc(C(=O)NC=C(c3ccccc3)c3ccccc3)c(O)c2s1 [S phenyl phenyl CO2 CH3, 5-Carbomethoxy-N-(2,2-diphenylethenyl)-3-hydroxythieno[3,2-b]thiophene-2-carboxamide]
inhibition at 100 µg/mL (5-lipoxygenase): 12% | inhibition at 0.01 µg/mL (cyclooxygenase; Dosage 0.01 μg/ml): 9% | inhibition at 0.05 µg/mL (cyclooxygenase; Dosage 0.05 μg/ml): 33% | inhibition at 0.5 µg/mL (cyclooxygenase): 80% | inhibition at 5 µg/mL (cyclooxygenase): 100% | inhibition at 100 µg/mL (cyclooxygenase; Dosage 100 μg/ml): 100% | solubility (footnote) [1]: very insoluble

O=C(NC=C(c1ccccc1)c1ccccc1)c1sc2ccsc2c1O [S phenyl phenyl H, N-(2,2-diphenylethenyl)-3-hydroxythieno[3,2-b]thiophene-2-carboxamide]
inhibition at 1 µg/mL (5-lipoxygenase): 34% | inhibition at 0.1 µg/mL (cyclooxygenase): 39% | inhibition at 0.48 µg/mL (cyclooxygenase; Dosage 0.48 μg/ml): 99% | inhibition at 1 µg/mL (cyclooxygenase): 100% | inhibition at 2.4 µg/mL (cyclooxygenase; Dosage 2.40 μg/ml): 100%

CCCCC[C@H](O)/C=C/[C@@H]1[C@@H](C/C=C\CCCC(=O)O)[C@H](O)C[C@H]1O [protaglandin F2B]
gastric cytoprotection (gastric cytoprotection): does induce gastric cytoprotection | inhibition of gastric acid secretion (gastric acid secretion): does not inhibit gastric acid secretion
